Results reported in ChEMBL document CHEMBL3885861, “Open TG-GATES”.

Organism: Rattus norvegicus
Assay: Open TG-GATES - Regimen: Single
Assay type: toxicity, organism-based, Sprague-Dawley
Parameters: regimen Single, gender Male, age 6 weeks
Settings: in vivo, ip, 24 h, route intraperitoneal injection; for Bas / Eos / Hb / Ht / Lym / MCH / MCHC / MCV / Mono / Neu / Plat / RBC / Ret / WBC: tissue Blood; for KIDNEY_L / KIDNEY_R / KIDNEY_TOTAL: tissue Kidney; for LIVER: tissue Liver; for A/G / ALP / ALT / AST / BUN / CRE / Ca / Cl / DBIL / GLC / IP / K / LDH / Na / PL / RALB / TBIL / TC / TG / TP / gamma-GTP: tissue Plasma

## CN(N=O)C(N)=O [N-METHYL-N-NITROSUREA]
0 mg/kg, dose level Control
  TERMINAL_BW: 240.3 g
  Bas: 0%
  Eos: 0.8%
  Hb: 12.5 g/dL
  Ht: 38.8%
  Lym: 78.8%
  MCH: 19.9 pg
  MCHC: 32.4%
  MCV: 61.6 fL
  Mono: 2.4%
  Neu: 17.6%
  Plat: 125.4 x10_4/uL
  RBC: 629.8 x10_4/ul
  Ret: 8.1%
  WBC: 104.4 x10_2/uL
  KIDNEY_L: 1 g
  KIDNEY_R: 1 g
  KIDNEY_TOTAL: 2 g
  LIVER: 11.1 g
  A/G: 1
  ALP: 1557.2 IU/L
  ALT: 41.2 IU/L
  AST: 72.8 IU/L
  BUN: 17.5 mg/dL
  CRE: 0.2 mg/dL
  Ca: 10.7 mg/dL
  Cl: 102.9 meq/L
  DBIL: 0 mg/dL
  GLC: 198 mg/dL
  IP: 7.1 mg/dL
  K: 4.2 meq/L
  LDH: 141.2 IU/L
  Na: 141.4 meq/L
  PL: 160 mg/dL
  RALB: 2.7 g/dL
  TBIL: 0.004 mg/dL
  TC: 79.4 mg/dL
  TG: 135 mg/dL
  TP: 5.6 g/dL
  gamma-GTP: 1 IU/L
10 mg/kg, dose level Low
  TERMINAL_BW: 233.4 g
  Bas: 0%
  Eos: 0.2%
  Hb: 13 g/dL
  Ht: 39.7%
  Lym: 90.2%
  MCH: 19.9 pg
  MCHC: 32.8%
  MCV: 60.7 fL
  Mono: 2.6%
  Neu: 5.6%
  Plat: 126.2 x10_4/uL
  RBC: 653 x10_4/ul
  Ret: 5.7%
  WBC: 66.8 x10_2/uL
  KIDNEY_L: 1 g
  KIDNEY_R: 1 g
  KIDNEY_TOTAL: 2.1 g
  LIVER: 10.9 g
  A/G: 1
  ALP: 1481.4 IU/L
  ALT: 33.4 IU/L
  AST: 65.8 IU/L
  BUN: 16.9 mg/dL
  CRE: 0.1 mg/dL
  Ca: 10.6 mg/dL
  Cl: 102.9 meq/L
  DBIL: 0.004 mg/dL
  GLC: 198 mg/dL
  IP: 7.2 mg/dL
  K: 4.1 meq/L
  LDH: 138.4 IU/L
  Na: 141 meq/L
  PL: 167.6 mg/dL
  RALB: 2.9 g/dL
  TBIL: 0.01 mg/dL
  TC: 85.6 mg/dL
  TG: 118.8 mg/dL
  TP: 5.7 g/dL
  gamma-GTP: 0.8 IU/L
30 mg/kg, dose level Middle
  TERMINAL_BW: 227.7 g
  Bas: 0%
  Eos: 0%
  Hb: 11.8 g/dL
  Ht: 35.8%
  Lym: 80.2%
  MCH: 20.8 pg
  MCHC: 32.9%
  MCV: 63.3 fL
  Mono: 3.2%
  Neu: 15.4%
  Plat: 127.5 x10_4/uL
  RBC: 566 x10_4/ul
  Ret: 4.9%
  WBC: 34.5 x10_2/uL
  KIDNEY_L: 1 g
  KIDNEY_R: 1 g
  KIDNEY_TOTAL: 2 g
  LIVER: 9.9 g
  A/G: 0.9
  ALP: 1270.8 IU/L
  ALT: 35.2 IU/L
  AST: 70 IU/L
  BUN: 17.6 mg/dL
  CRE: 0.1 mg/dL
  Ca: 10.4 mg/dL
  Cl: 103.6 meq/L
  DBIL: 0.01 mg/dL
  GLC: 196 mg/dL
  IP: 8.3 mg/dL
  K: 3.9 meq/L
  LDH: 151 IU/L
  Na: 141.8 meq/L
  PL: 150.4 mg/dL
  RALB: 2.7 g/dL
  TBIL: 0.022 mg/dL
  TC: 82.6 mg/dL
  TG: 51.7 mg/dL
  TP: 5.6 g/dL
  gamma-GTP: 1 IU/L
100 mg/kg, dose level High
  TERMINAL_BW: 207.9 g
  Bas: 0%
  Eos: 0%
  Hb: 13.8 g/dL
  Ht: 41.1%
  Lym: 14.2%
  MCH: 20.5 pg
  MCHC: 33.5%
  MCV: 61.1 fL
  Mono: 3.2%
  Neu: 82%
  Plat: 117.5 x10_4/uL
  RBC: 673.6 x10_4/ul
  Ret: 4.4%
  WBC: 13.1 x10_2/uL
  KIDNEY_L: 1 g
  KIDNEY_R: 1 g
  KIDNEY_TOTAL: 1.9 g
  LIVER: 9.7 g
  A/G: 1
  ALP: 1181 IU/L
  ALT: 28.6 IU/L
  AST: 113 IU/L
  BUN: 16.2 mg/dL
  CRE: 0.1 mg/dL
  Ca: 10.3 mg/dL
  Cl: 101.6 meq/L
  DBIL: 0.01 mg/dL
  GLC: 197.8 mg/dL
  IP: 8.2 mg/dL
  K: 3.6 meq/L
  LDH: 166.4 IU/L
  Na: 142.3 meq/L
  PL: 150.4 mg/dL
  RALB: 2.7 g/dL
  TBIL: 0.016 mg/dL
  TC: 75.8 mg/dL
  TG: 59.3 mg/dL
  TP: 5.4 g/dL
  gamma-GTP: 0.7 IU/L
